Data as given in ChEMBL document CHEMBL4627308, “Identification of C10 nitrogen-containing aporphines with dopamine D1 versus D5 receptor selectivity” (Bioorg Med Chem Lett, 2020).

Tests used:
[1] = target: T1, 5-hydroxytryptamine receptor 2A (Homo sapiens, UniProt P28223)
Description: Binding affinity to human 5HT2A receptor

D(1A) dopamine receptor [2] = target: T2, D(1A) dopamine receptor (Homo sapiens, UniProt P21728); test: Binding affinity to human D1 receptor
[3] = target: T3, 5-hydroxytryptamine receptor 1A (Homo sapiens) (UniProt P08908); test: Inhibition of human 5HT1A receptor relative to control; design: concentration or dose not given beside the values; details: concentration not given here
T3 sequence (whole entry): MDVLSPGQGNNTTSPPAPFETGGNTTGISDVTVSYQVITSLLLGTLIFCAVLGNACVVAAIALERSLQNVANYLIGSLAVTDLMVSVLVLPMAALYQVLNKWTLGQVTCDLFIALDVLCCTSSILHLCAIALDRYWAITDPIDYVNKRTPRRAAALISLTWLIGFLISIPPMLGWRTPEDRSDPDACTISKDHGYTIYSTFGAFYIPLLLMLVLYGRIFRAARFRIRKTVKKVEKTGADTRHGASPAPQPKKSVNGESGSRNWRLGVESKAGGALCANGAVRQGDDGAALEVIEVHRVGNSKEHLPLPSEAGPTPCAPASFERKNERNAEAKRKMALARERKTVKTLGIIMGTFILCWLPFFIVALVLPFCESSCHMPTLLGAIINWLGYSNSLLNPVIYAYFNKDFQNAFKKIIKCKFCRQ

[4] = target: T1, 5-hydroxytryptamine receptor 2A; test: Inhibition of human 5HT2A receptor relative to control; design: concentration or dose not given beside the values; details: concentration not given here
[5] = target: D(1B) dopamine receptor (Homo sapiens) (UniProt P21918); test: Inhibition of human D5 receptor relative to control; design: concentration or dose not given beside the values; details: concentration not given here
Sequence of D(1B) dopamine receptor (Homo sapiens) (P21918 whole entry): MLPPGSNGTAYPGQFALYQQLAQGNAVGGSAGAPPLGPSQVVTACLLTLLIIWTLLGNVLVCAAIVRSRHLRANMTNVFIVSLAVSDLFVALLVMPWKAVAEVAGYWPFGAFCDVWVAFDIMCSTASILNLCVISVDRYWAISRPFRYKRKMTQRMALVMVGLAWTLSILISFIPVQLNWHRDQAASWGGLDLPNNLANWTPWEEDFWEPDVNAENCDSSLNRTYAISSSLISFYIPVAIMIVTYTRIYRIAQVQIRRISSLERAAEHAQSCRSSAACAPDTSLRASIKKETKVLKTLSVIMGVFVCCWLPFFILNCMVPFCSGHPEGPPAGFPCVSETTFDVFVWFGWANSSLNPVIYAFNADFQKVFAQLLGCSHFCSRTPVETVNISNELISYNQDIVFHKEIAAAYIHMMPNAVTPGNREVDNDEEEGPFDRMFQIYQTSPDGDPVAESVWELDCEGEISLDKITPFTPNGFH

D(1A) dopamine receptor [6] = target: T2, D(1A) dopamine receptor; test: Inhibition of human D1 receptor relative to control; design: concentration or dose not given beside the values; details: concentration not given here
D(2) dopamine receptor [7] = target: T4, D(2) dopamine receptor (Homo sapiens, UniProt P14416); test: Inhibition of human D2 receptor relative to control; design: concentration or dose not given beside the values; details: concentration not given here
T4 sequence (P14416 whole entry): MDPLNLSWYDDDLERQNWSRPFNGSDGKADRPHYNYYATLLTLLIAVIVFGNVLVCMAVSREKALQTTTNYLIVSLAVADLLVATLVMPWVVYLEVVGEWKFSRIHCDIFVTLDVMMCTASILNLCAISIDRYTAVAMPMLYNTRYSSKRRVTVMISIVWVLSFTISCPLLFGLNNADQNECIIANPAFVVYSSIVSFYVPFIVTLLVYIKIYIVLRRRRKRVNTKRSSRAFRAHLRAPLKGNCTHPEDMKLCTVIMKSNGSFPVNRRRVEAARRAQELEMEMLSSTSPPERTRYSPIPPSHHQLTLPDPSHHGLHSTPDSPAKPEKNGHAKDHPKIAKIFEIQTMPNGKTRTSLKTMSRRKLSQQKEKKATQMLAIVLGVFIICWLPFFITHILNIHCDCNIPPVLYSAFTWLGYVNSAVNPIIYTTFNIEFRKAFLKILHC

[8] = target: T5, 5-hydroxytryptamine receptor 1A (Homo sapiens, UniProt P08908); test: Binding affinity to human 5HT1A receptor
T5 sequence (P08908 whole entry): T3 sequence (whole entry)

D(2) dopamine receptor [9] = target: T4, D(2) dopamine receptor; test: Binding affinity to human D2 receptor
[10] = Microsomal stability in human liver microsomes assessed as parent compound remaining measured after 15 mins; format: ADME, Microsome; details: 0.25 h
[11] = Microsomal stability in human liver microsomes assessed as parent compound remaining measured immediately; format: ADME, Microsome
[12] = Microsomal stability in human liver microsomes assessed as parent compound remaining measured after 60 mins; format: ADME, Microsome; details: 1 h
[13] = Microsomal stability in human liver microsomes assessed as parent compound remaining measured after 120 mins; format: ADME, Microsome; details: 2 h
[14] = Microsomal stability in human liver microsomes assessed as parent compound remaining measured after 30 mins; format: ADME, Microsome; details: 0.5 h

T2 sequence (P21728 whole entry): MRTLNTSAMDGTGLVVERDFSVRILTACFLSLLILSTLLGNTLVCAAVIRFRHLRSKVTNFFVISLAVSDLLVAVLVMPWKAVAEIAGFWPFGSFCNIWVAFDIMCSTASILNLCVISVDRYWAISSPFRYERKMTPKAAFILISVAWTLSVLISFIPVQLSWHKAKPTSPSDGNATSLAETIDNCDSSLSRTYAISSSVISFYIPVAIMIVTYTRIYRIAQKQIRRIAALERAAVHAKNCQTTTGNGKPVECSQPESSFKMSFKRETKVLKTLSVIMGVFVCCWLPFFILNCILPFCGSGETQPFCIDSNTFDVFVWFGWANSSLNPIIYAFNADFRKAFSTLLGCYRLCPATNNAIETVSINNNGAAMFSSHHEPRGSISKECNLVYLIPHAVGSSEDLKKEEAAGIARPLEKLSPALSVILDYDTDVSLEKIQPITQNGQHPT
T1 sequence (P28223 whole entry): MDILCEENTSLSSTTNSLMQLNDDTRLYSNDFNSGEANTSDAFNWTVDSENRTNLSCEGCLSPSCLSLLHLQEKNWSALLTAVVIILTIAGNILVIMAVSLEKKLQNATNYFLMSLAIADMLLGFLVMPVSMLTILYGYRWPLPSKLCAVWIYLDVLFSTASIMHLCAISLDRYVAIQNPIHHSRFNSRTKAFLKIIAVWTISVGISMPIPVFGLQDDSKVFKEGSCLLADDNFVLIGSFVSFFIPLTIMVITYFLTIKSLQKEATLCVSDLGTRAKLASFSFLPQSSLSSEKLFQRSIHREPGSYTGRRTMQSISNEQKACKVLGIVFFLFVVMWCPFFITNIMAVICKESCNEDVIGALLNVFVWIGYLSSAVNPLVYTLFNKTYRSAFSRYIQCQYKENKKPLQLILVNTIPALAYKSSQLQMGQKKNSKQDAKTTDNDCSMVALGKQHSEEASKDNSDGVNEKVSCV

| Stability [10] [%] | Stability [11] [%] | Stability [12] [%] | Stability [13] [%] | Stability [14] [%] | Compound | Ki [1] [nM] | Ki (D(1A) dopamine receptor [2]) [nM] | inhibition [3] [%] | inhibition [4] [%] | inhibition [5] [%] | inhibition (D(1A) dopamine receptor [6]) [%] | inhibition (D(2) dopamine receptor [7]) [%] | Ki [8] [nM] | Ki (D(2) dopamine receptor [9]) [nM] |
| --- | --- | --- | --- | --- | --- | --- | --- | --- | --- | --- | --- | --- | --- | --- |
|  |  |  |  |  | COc1cc2c3c(c1O)-c1cc(N)ccc1CC3N(C)CC2 (stereo not drawn) | 850 | 301 | < 50 |  |  |  |  |  |  |
|  |  |  |  |  | O=[N+]([O-])c1ccc2c(c1)-c1cccc3c1C(C2)NCC3 (stereo not drawn) |  |  |  | < 50 | < 50 | < 50 | < 50 | 350 |  |
|  |  |  |  |  | COc1cc2c3c(c1OC)-c1cc(NC(C)=O)ccc1CC3N(C)CC2 (stereo not drawn) |  | 756 | < 50 | < 50 | < 50 |  |  |  | 978 |
|  |  |  |  |  | CN1CCc2cccc3c2C1Cc1ccc([N+](=O)[O-])cc1-3 (stereo not drawn) |  | 928 |  | < 50 | < 50 |  | < 50 | 100 |  |
| 89.33 | 100 | 80.43 | 36.68 | 99.73 | CN1CCc2cccc3c2[C@H]1Cc1ccc(O)c(O)c1-3 [APOMORPHINE] |  |  |  |  |  |  |  |  |  |
|  |  |  |  |  | CCCC(=O)Nc1ccc2c(c1)-c1cccc3c1C(C2)N(C)CC3 (stereo not drawn) |  |  |  | < 50 | < 50 | < 50 | < 50 | 83 |  |
| 99.76 | 100 | 95.6 | 102.69 | 97.8 | C#CCOc1c(OC)cc2c3c1-c1cc(NC(C)=O)ccc1CC3N(C)CC2 (stereo not drawn) | 1270 | 58 | < 50 |  | < 50 |  |  |  | 854 |
|  |  |  |  |  | COc1cc2c3c(c1OC)-c1cc(N)ccc1CC3N(C)CC2 (stereo not drawn) | 585 | 691 |  |  | < 50 |  |  | 156 | 260 |
|  |  |  |  |  | COc1cc2c3c(c1O)-c1cc([N+](=O)[O-])ccc1CC3N(C)CC2 (stereo not drawn) | 908 | 316 |  |  | < 50 |  |  | 548 | 320 |
|  |  |  |  |  | CN1CCc2cccc3c2C1Cc1ccc(N)cc1-3 (stereo not drawn) | 672 |  |  |  | < 50 | < 50 |  | 269 | 679 |
|  |  |  |  |  | C=CCOc1c(OC)cc2c3c1-c1cc(N)ccc1CC3N(C)CC2 (stereo not drawn) | 234 | 830 | < 50 |  | < 50 |  |  |  | 759 |
|  |  |  |  |  | C#CCOc1c(OC)cc2c3c1-c1cc(N)ccc1CC3N(C)CC2 (stereo not drawn) | 378 | 709 |  |  | < 50 |  |  | 428 | 431 |
|  |  |  |  |  | COc1cc2c3c(c1OC1CC1)-c1cc([N+](=O)[O-])ccc1CC3N(C)CC2 (stereo not drawn) |  |  |  | < 50 | < 50 | < 50 | < 50 | 439 |  |
|  |  |  |  |  | C=CCOc1c(OC)cc2c3c1-c1cc([N+](=O)[O-])ccc1CC3N(C)CC2 (stereo not drawn) |  |  |  | < 50 | < 50 | < 50 | < 50 | 1680 |  |
|  |  |  |  |  | C=CCOc1c(OC)cc2c3c1-c1cc(NC(C)=O)ccc1CC3N(C)CC2 (stereo not drawn) | 1220 | 155 | < 50 |  | < 50 |  | < 50 |  |  |
|  |  |  |  |  | COc1cc2c3c(c1OC1CC1)-c1cc(N)ccc1CC3N(C)CC2 (stereo not drawn) | 110 | 1110 | < 50 |  | < 50 |  |  |  | 963 |
|  |  |  |  |  | COc1cc2c3c(c1OC)-c1cc([N+](=O)[O-])ccc1CC3N(C)CC2 (stereo not drawn) | 1350 | 726 |  |  | < 50 |  |  | 458 | 478 |
|  |  |  |  |  | C#CCOc1c(OC)cc2c3c1-c1cc([N+](=O)[O-])ccc1CC3N(C)CC2 (stereo not drawn) |  | 536 |  | < 50 | < 50 |  |  | 206 | 2050 |
|  |  |  |  |  | CC(=O)Nc1ccc2c(c1)-c1cccc3c1C(C2)N(C)CC3 (stereo not drawn) | 1060 |  |  |  | < 50 | < 50 | < 50 | 93 |  |

| Compound | Stability [10] [%] | Stability [11] [%] | Stability [12] [%] | Stability [13] [%] | Stability [14] [%] | Ki [1] [nM] | Ki (D(1A) dopamine receptor [2]) [nM] | inhibition [3] [%] | inhibition [4] [%] | inhibition [5] [%] | inhibition (D(1A) dopamine receptor [6]) [%] | inhibition (D(2) dopamine receptor [7]) [%] | Ki [8] [nM] | Ki (D(2) dopamine receptor [9]) [nM] |
| --- | --- | --- | --- | --- | --- | --- | --- | --- | --- | --- | --- | --- | --- | --- |
| CC(C)[N+](C)(CCOC(=O)C1c2ccccc2Oc2ccccc21)C(C)C [PROPANTHELINE] | 65.33 | 100 | 6.4 | 0.16 | 36.32 |  |  |  |  |  |  |  |  |  |
